# Test results from paper PMC5844530, “Fosmetpantotenate (RE-024), a phosphopantothenate replacement therapy for pantothenate kinase-associated neurodegeneration: Mechanism of action and efficacy in nonclinical models” (PLoS ONE, 2018).
# Where “and” joins values, the source holds several entries; their conditions need not be identical. Equal entries are not always repeated.
# Assays:
# [1] = Stability in simulated gastric fluid; format: in vitro ADME; conditions: simulated gi fluid; pH 1.2; 3.2 mg/mL pepsin; 10 μM; read-out: half-life (t½) in simulated gastric fluid
# Protocol: Stability in simulated gastric fluid: A stock solution of fosmetpantotenate or its individual diastereomers was prepared in 0.1% formic acid in methanol. Simulated gastric fluid, pH 1.2, was prepared with 2 g/L sodium chloride, 3.2 g/L of pepsin, and 0.7% (v/v) HCl. Gastric buffer, pH 1.2, was prepared containing 2 g/L sodium chloride and 0.7% (v/v) HCl. An appropriate aliquot of fosmetpantotenate or individual diastereomers to yield an initial concentration of 10 μM was added to both fluids, and samples were mixed at ~25°C on an orbital shaker. Aliquots (50 μL) were taken at 0, 2, and 4 h; added to 150 μL dimethyl sulfoxide (DMSO) containing an analytical internal standard; vortexed; and analyzed immediately by LC-MS/MS.
# (§1) Bioanalysis for determinations of analyte stability: Samples were analyzed using a benchtop tandem quadrupole detector (TQD) mass spectrometer (Waters Ltd, Centennial Park, Hertfordshire). […] Suitable retention and peak shape with separation of the 2 diastereomers were obtained. The chromatography column was a Phenomenex-Kinetex XB C18 (2.10 x 50 mm; 2.6 μm), with a 0.7 mL/min flow rate and a 2 μL injection volume. […] The gradient was initiated with 20% B and increased linearly, reaching 40% B at 0.6 min, followed by 50% B at 0.8 min and by 95% B at 0.9 min. Conditions were kept isocratic through 1.2 min, returned to starting conditions (20% B) at 1.25 min, and maintained at 20% B through 1.5 min before the next injection. Since fosmetpantotenate is a mixture of diastereomers which are resolved chromatographically, the fosmetpantotenate MRM area corresponds to the sum of the MRM areas of the individual diastereomers.
# (§2) The percent of compound remaining was determined from the MRM area response in each sample relative to that in the T = 0 samples (normalized for internal standard). Natural log plots of the percent compound remaining over time were used to determine the t½ of compound disappearance using the relationship t½ = -0.693/λ, where λ is the slope of the natural logarithm of the percent compound remaining vs time curve.
# [2] = tested on: porcine brain endothelial cell (PBEC) co-culture model; experiment: In vitro blood-brain barrier permeability (PBEC/rat astrocyte co-culture); conditions: in words
# Protocol: Permeability studies were performed after 2 days of co-culture with rat astrocytes. […] In each filter used for transport, a paracellular marker was included as an internal control to monitor the integrity of the cell monolayer. The day of the experiment, culture medium was removed and cells on Transwell inserts were pre-incubated for 30 min with Hank's Balanced Salt Solution (HBSS) containing 20 mM Hepes pH 7.4 and 0.1% bovine serum albumin (BSA). […] Aliquots from the basal compartment were taken after 1 h; fluorescence was measured using a fluorescence detector. The permeability coefficient of the total system was calculated as follows: P[cm/s]=Vd×ΔMr/A×Md×Δt Where:
# To correct for the contribution of the porous polycarbonate membrane of the filter in the absence of cells, the permeability was also determined for the cell-free system. Contribution of the endothelial cell monolayer to the permeability of the cell and filter system was determined by the following equation: 1/Pe=1/Pt-1/Pf Where the total permeability of the system is denoted as Pt, the cell-free filter as Pf, and the endothelial cell layer alone as Pe. The total resistance of the system towards passage of a substance is composed of 2 resistances in series: that of the cell monolayer and that of the filter; permeability is estimated as 1/resistance [27]. […] Mass balance was determined based on the amount of compound recovered in the donor and receiver chamber at the end of the assay relative to the amount added to the donor chamber at time 0.
# [3] = Metabolic stability in rat liver microsomes; format: in vitro ADME; conditions: pooled liver microsomes
# Protocol: (§3) Metabolic stability in blood and liver microsomes: Fosmetpantotenate or its individual diastereomers (5 μM, n = 2, 37°C) were incubated in mouse, rat, cynomolgus monkey, and human whole blood. Samples (50 μL) were taken at 0, 5, 15, 30, and 60 min. Incubations of fosmetpantotenate or its individual diastereomers (1 μM, n = 2, 37°C) in pooled liver microsomes (0.25 mg protein/mL in 0.1 M phosphate buffer pH 7.4) were initiated with the addition of nicotinamide adenine dinucleotide phosphate (NADPH; 1 mM). Aliquots (100 μL) were obtained at 0, 5, 10, 20, and 40 min and added to 150 μL of 0.1% formic acid in acetonitrile-containing carbamazepine (0.5 μM) as an analytical internal standard, centrifuged, and the supernatants analyzed by LC-MS/MS.
# (§4) Bioanalysis for determinations of analyte stability: Samples were analyzed using a benchtop tandem quadrupole detector (TQD) mass spectrometer (Waters Ltd, Centennial Park, Hertfordshire). […] Suitable retention and peak shape with separation of the 2 diastereomers were obtained. The chromatography column was a Phenomenex-Kinetex XB C18 (2.10 x 50 mm; 2.6 μm), with a 0.7 mL/min flow rate and a 2 μL injection volume. […]
# (§5) The percent of compound remaining was determined from the MRM area response in each sample relative to that in the T = 0 samples (normalized for internal standard). […]
# [4] = tested on: PanK2 knockdown cells (acetylated tubulin); experiment: Western blot analysis of acetylated tubulin; format: cell-based, human; conditions: for Tubulin Acetylation (fold of control): mean ± SD of 3 independent experiments, β-actin normalization; for Acetyl tubulin level (fold over vehicle): single experiments Exp1 (n=1), Exp2 (n=3), Exp3 (n=3), listed as RE-024; for Acetyl tubulin (quantification) / Acetyl tubulin Normalized (to actin): 1 µM fosmetpantotenate, replicates 1-2
# Protocol: After incubation, the cells were lysed in RIPA buffer containing 300 mM NaCl, 10 mM Tris HCl pH 8.0, 10 mM KCl, 1 mM ethylenediaminetetraacetic acid (EDTA), 1% Nonidet-P40, 1% sodium deoxycholate, 0.1% SDS, 1 mM phenylmethanesulfonyl fluoride, and protease inhibitor cocktail (11697498001, Roche, Indianapolis, IN), and sonicated on ice with a Branson 450 sonicator through 2 cycles of ten 2s pulses (1 min pause between cycles). Total protein concentration was determined using a Bio-Rad Protein Assay (500–0006, Biorad, Hercules, CA). Cell extracts were subjected to sodium dodecyl sulfate polyacrylamide gel electrophoresis (SDS-PAGE) analysis (4–12%, NP0335BOX, Life Technologies, Great Island, NY) and transferred to a nitrocellulose membrane (10401396, Whatman, Maidstone, UK). Immunostaining was accomplished by overnight incubation with primary antibodies followed by 1 h of incubation with dye-conjugated secondary antibodies according to the manufacturer’s instructions. Protein detection was achieved using an Infrared Odyssey system (LiCor, Lincoln, NE). Densitometric analysis of western blots was performed using ImageJ software; the statistical significance was determined using a t-test. Actin was used as a normalization probe.
# [5] = Metabolic stability in human whole blood; format: in vitro ADME; conditions: for Percentage Remaining: human whole blood, replicates 1 and 2, listed as Fosmetpantotenate Total
# Protocol: as §3, §1, §2
# [6] = Metabolic stability in monkey whole blood; format: in vitro ADME, cynomolgus monkey; conditions: for Percentage Remaining: monkey whole blood, replicates 1 and 2, listed as Fosmetpantotenate Total
# Protocol: as §3, with “Samples (50 μL) were taken at 0, 5, 15, 30, and 60 min.” left out
# as §1, §2
# [7] = Metabolic stability in mouse liver microsomes; format: in vitro ADME; conditions: pooled liver microsomes
# Protocol: as §3, §4, §5
# [8] = pH 7.4, read-out: intrinsic clearance
smiles,measurement,setting,value
COC(=O)CCNC(=O)[C@H](O)C(C)(C)COP(=O)(N[C@@H](C)C(=O)OC)Oc1ccccc1 (mixture of isomers) [Fosmetpantotenate],half-life at 10 μM,[1],> 600 min
same,blood-brain barrier permeability classification,[2],permeable
same,half-life at 1 μM,"[3]; pH 7.4, 1 μM, NADPH",8 min
same,microsomal CLint at 1 μM,[3]; [8],335 µL/min/mg
same,change in acetyl tubulin,"[4]; 1 μM TID, day 1",statistically significant decrease
same,increase in acetyl tubulin,"[4]; 1 μM TID, day 5",~ 1.6 fold
same,Tubulin Acetylation (fold of control),[4]; 25 μM,2.32 ± 0.64 fold of control
same,Acetyl tubulin level (fold over vehicle),[4]; 25 µM,1.86 fold over vehicle and 2.77 ± 0.13 fold over vehicle
same,Tubulin Acetylation (fold of control),[4]; 50 μM,3.68 ± 1.13 fold of control
same,Acetyl tubulin level (fold over vehicle),[4]; 50 µM,3.02 fold over vehicle and 3.03 ± 0.05 fold over vehicle and 4.99 ± 0.03 fold over vehicle
same,Tubulin Acetylation (fold of control),[4]; 200 μM,5.12 ± 2.57 fold of control
same,Acetyl tubulin (quantification),"[4]; Experiment 1, DAY 1",5352.933 and 4967.69
same,Acetyl tubulin Normalized (to actin),"[4]; Experiment 1, DAY 1",1.0
same,Acetyl tubulin (quantification),"[4]; Experiment 1, DAY 3",5869.761 and 6720.347
same,Acetyl tubulin Normalized (to actin),"[4]; Experiment 1, DAY 3",1.2 and 1.5
same,Acetyl tubulin (quantification),"[4]; Experiment 1, DAY 5",9323.933 and 10851.882
same,Acetyl tubulin Normalized (to actin),"[4]; Experiment 1, DAY 5",2.0 and 2.1
same,Acetyl tubulin (quantification),"[4]; Experiment 2, DAY 1",2820.548 and 2422.355
same,Acetyl tubulin Normalized (to actin),"[4]; Experiment 2, DAY 1",1.1 and 1.0
same,Acetyl tubulin (quantification),"[4]; Experiment 2, DAY 3",5646.447 and 4155.426
same,Acetyl tubulin Normalized (to actin),"[4]; Experiment 2, DAY 3",2.6
same,Acetyl tubulin (quantification),"[4]; Experiment 2, DAY 5",4976.426 and 5163.962
same,Acetyl tubulin Normalized (to actin),"[4]; Experiment 2, DAY 5",2.2 and 1.9
same,half-life at 5 μM,"[5]; human blood, 5 μM, 37°C, 60 min",67 min
same,Percentage Remaining,[5]; 5 min,103% and 90%
same,Percentage Remaining,[5]; 15 min,114% and 99%
same,Percentage Remaining,[5]; 30 min,77% and 71%
same,Percentage Remaining,[5]; 60 min,56% and 55%
same,half-life at 5 μM,"[6]; monkey blood, 5 μM, 37°C, 60 min",41 min
same,Percentage Remaining,[6]; 5 min,79% and 108%
same,Percentage Remaining,[6]; 15 min,66% and 98%
same,Percentage Remaining,[6]; 30 min,45% and 79%
same,Percentage Remaining,[6]; 60 min,22% and 35%
same,Percentage Remaining,[6]; 90 min,15% and 35%
same,Percentage Remaining,[6]; 120 min,10% and 17%
same,half-life at 1 μM,"[7]; pH 7.4, 1 μM, NADPH",11 min
same,microsomal CLint at 1 μM,[7]; [8],247 µL/min/mg
